According to PubChem BioAssay (NCI):
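Each compound was tested at five concentrations against cells in 96-well plates for 48 hours. GI50 marks 50% less growth. TGI: total growth inhibition.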

Key:
Assay in all cases: NCI-60 cell line screen, 48 h
SNB-19 CNS = tested on: SNB-19 CNS
MDA-MB-468 breast = tested on: MDA-MB-468 breast
MDA-MB-231 breast = tested on: MDA-MB-231 breast
K-562 leukemia = tested on: K-562 leukemia
NCI-H522 lung = tested on: NCI-H522 lung
NCI/ADR-RES ovarian = tested on: NCI/ADR-RES ovarian
SK-OV-3 ovarian = tested on: SK-OV-3 ovarian
M14 melanoma = tested on: M14 melanoma
SR leukemia = tested on: SR leukemia
IGROV1 ovarian = tested on: IGROV1 ovarian
SF-268 CNS = tested on: SF-268 CNS
SNB-75 CNS = tested on: SNB-75 CNS
NCI-H23 lung = tested on: NCI-H23 lung
HCT-116 colon = tested on: HCT-116 colon
COLO 205 colon = tested on: COLO 205 colon
A498 renal = tested on: A498 renal
OVCAR-4 ovarian = tested on: OVCAR-4 ovarian
SN12C renal = tested on: SN12C renal
786-0 renal = tested on: 786-0 renal
EKVX NSCLC = tested on: EKVX NSCLC
U251 CNS = tested on: U251 CNS
OVCAR-8 ovarian = tested on: OVCAR-8 ovarian
MOLT-4 leukemia = tested on: MOLT-4 leukemia
HOP-62 NSCLC = tested on: HOP-62 NSCLC
MALME-3M melanoma = tested on: MALME-3M melanoma
HS 578T breast = tested on: HS 578T breast
ACHN renal = tested on: ACHN renal
T-47D breast = tested on: T-47D breast
SF-295 CNS = tested on: SF-295 CNS
DU-145 prostate = tested on: DU-145 prostate
SK-MEL-28 melanoma = tested on: SK-MEL-28 melanoma
SF-539 CNS = tested on: SF-539 CNS
UACC-62 melanoma = tested on: UACC-62 melanoma
RPMI-8226 leukemia = tested on: RPMI-8226 leukemia
HT29 colon = tested on: HT29 colon
LOX IMVI melanoma = tested on: LOX IMVI melanoma
SK-MEL-5 melanoma = tested on: SK-MEL-5 melanoma
OVCAR-5 ovarian = tested on: OVCAR-5 ovarian
CCRF-CEM leukemia = tested on: CCRF-CEM leukemia
SK-MEL-2 melanoma = tested on: SK-MEL-2 melanoma
UO-31 renal = tested on: UO-31 renal
BT-549 breast = tested on: BT-549 breast
OVCAR-3 ovarian = tested on: OVCAR-3 ovarian
HCT-15 colon = tested on: HCT-15 colon
MCF7 breast = tested on: MCF7 breast
RXF 393 renal = tested on: RXF 393 renal
MDA-MB-435 = tested on: MDA-MB-435
HL-60(TB) leukemia = tested on: HL-60(TB) leukemia
HCC-2998 colon = tested on: HCC-2998 colon
PC-3 prostate = tested on: PC-3 prostate
A549 NSCLC = tested on: A549 NSCLC
NCI-H460 lung = tested on: NCI-H460 lung
NCI-H226 lung = tested on: NCI-H226 lung
SW-620 colon = tested on: SW-620 colon
CAKI-1 renal = tested on: CAKI-1 renal
UACC-257 melanoma = tested on: UACC-257 melanoma
HOP-92 NSCLC = tested on: HOP-92 NSCLC
TK-10 renal = tested on: TK-10 renal
KM12 colon = tested on: KM12 colon

In the case of `O=C1c2c(c3c4cc(F)ccc4oc3c3[nH]c4ccc(Br)cc4c23)C(=O)N1O`, the GI50 (SNB-19 CNS) is reported as 0.678 µM, the TGI (SNB-19 CNS) is reported as greater than 79.9 µM and the GI50 (MDA-MB-468 breast) is reported as 3.45 µM. For the same compound, the TGI (MDA-MB-468 breast) was 23 µM, the GI50 (MDA-MB-231 breast) was 4.99 µM and the TGI (MDA-MB-231 breast) was 64.3 µM. It also gave a TGI (K-562 leukemia) greater than 100 µM, a GI50 (NCI-H522 lung) of 0.286 µM and a TGI (NCI-H522 lung) of 5.82 µM. For the same compound, the GI50 (NCI/ADR-RES ovarian) was 0.578 µM, the TGI (NCI/ADR-RES ovarian) was greater than 100 µM and the GI50 (SK-OV-3 ovarian) was 3.72 µM. The TGI (SK-OV-3 ovarian) was 37.6 µM, the GI50 (M14 melanoma) was 0.542 µM and the TGI (M14 melanoma) was greater than 100 µM. For the same compound, the GI50 (SR leukemia) was 0.131 µM, the TGI (SR leukemia) was greater than 100 µM and the GI50 (IGROV1 ovarian) was 1.05 µM. It also gave a TGI (IGROV1 ovarian) greater than 100 µM, a GI50 (SF-268 CNS) of 0.844 µM and a TGI (SF-268 CNS) greater than 100 µM. It also gave a GI50 (SNB-75 CNS) of 0.656 µM, a TGI (SNB-75 CNS) of 8.39 µM and a GI50 (NCI-H23 lung) of 0.471 µM. For the same compound, the TGI (NCI-H23 lung) was 11.7 µM, the GI50 (HCT-116 colon) was 2.09 µM and the TGI (HCT-116 colon) was greater than 100 µM. It also gave a GI50 (COLO 205 colon) greater than 33 µM, a TGI (COLO 205 colon) greater than 100 µM and a GI50 (A498 renal) of 26.6 µM. For the same compound, the TGI (A498 renal) was 70.9 µM, the GI50 (OVCAR-4 ovarian) was greater than 100 µM and the TGI (OVCAR-4 ovarian) was greater than 100 µM. The GI50 (SN12C renal) was 0.473 µM, the TGI (SN12C renal) was greater than 100 µM and the GI50 (786-0 renal) was 3.84 µM. The TGI (786-0 renal) was greater than 50.6 µM, the GI50 (EKVX NSCLC) was 25.8 µM and the TGI (EKVX NSCLC) was greater than 100 µM. The GI50 (U251 CNS) was 0.641 µM, the TGI (U251 CNS) was greater than 100 µM and the GI50 (OVCAR-8 ovarian) was 1.47 µM. For the same compound, the TGI (OVCAR-8 ovarian) was greater than 100 µM, the GI50 (MOLT-4 leukemia) was 0.505 µM and the TGI (MOLT-4 leukemia) was greater than 100 µM. The GI50 (HOP-62 NSCLC) was 0.833 µM, the TGI (HOP-62 NSCLC) was greater than 57.8 µM and the GI50 (MALME-3M melanoma) was 2.5 µM. For the same compound, the TGI (MALME-3M melanoma) was 16.1 µM, the GI50 (HS 578T breast) was 2.42 µM and the TGI (HS 578T breast) was greater than 34.9 µM. For the same compound, the GI50 (ACHN renal) was 0.372 µM, the TGI (ACHN renal) was 13.3 µM and the GI50 (T-47D breast) was 3.22 µM. The TGI (T-47D breast) was greater than 100 µM, the GI50 (SF-295 CNS) was 1.24 µM and the TGI (SF-295 CNS) was greater than 46.4 µM. The GI50 (DU-145 prostate) was 0.735 µM, the TGI (DU-145 prostate) was greater than 100 µM and the GI50 (SK-MEL-28 melanoma) was 5.84 µM. It also gave a TGI (SK-MEL-28 melanoma) greater than 100 µM, a GI50 (SF-539 CNS) of 0.381 µM and a TGI (SF-539 CNS) of 4.34 µM. It also gave a GI50 (UACC-62 melanoma) of 0.799 µM, a TGI (UACC-62 melanoma) of 14.6 µM and a GI50 (RPMI-8226 leukemia) of 1.86 µM. For the same compound, the TGI (RPMI-8226 leukemia) was greater than 100 µM, the GI50 (HT29 colon) was 6.86 µM and the TGI (HT29 colon) was greater than 100 µM. It also gave a GI50 (LOX IMVI melanoma) of 0.227 µM, a TGI (LOX IMVI melanoma) of 1.4 µM and a GI50 (SK-MEL-5 melanoma) of 1.42 µM. It also gave a TGI (SK-MEL-5 melanoma) of 15 µM, a GI50 (OVCAR-5 ovarian) greater than 100 µM and a TGI (OVCAR-5 ovarian) greater than 100 µM. The GI50 (CCRF-CEM leukemia) was 0.193 µM, the TGI (CCRF-CEM leukemia) was greater than 100 µM and the GI50 (SK-MEL-2 melanoma) was 18.6 µM. For the same compound, the TGI (SK-MEL-2 melanoma) was 45.4 µM, the GI50 (UO-31 renal) was 0.439 µM and the TGI (UO-31 renal) was greater than 100 µM. It also gave a GI50 (BT-549 breast) of 1.84 µM, a TGI (BT-549 breast) greater than 100 µM and a GI50 (OVCAR-3 ovarian) of 45 µM. It also gave a TGI (OVCAR-3 ovarian) greater than 100 µM, a GI50 (HCT-15 colon) of 3.57 µM and a TGI (HCT-15 colon) greater than 100 µM. The GI50 (MCF7 breast) was 0.488 µM, the TGI (MCF7 breast) was greater than 100 µM and the GI50 (RXF 393 renal) was 3.76 µM. The TGI (RXF 393 renal) was 32.8 µM, the GI50 (MDA-MB-435) was 4.91 µM and the TGI (MDA-MB-435) was greater than 100 µM. It also gave a GI50 (HL-60(TB) leukemia) of 6.07 µM, a TGI (HL-60(TB) leukemia) greater than 100 µM and a GI50 (HCC-2998 colon) of 11.5 µM. For the same compound, the TGI (HCC-2998 colon) was greater than 100 µM, the GI50 (PC-3 prostate) was 0.926 µM and the TGI (PC-3 prostate) was greater than 100 µM. The GI50 (A549 NSCLC) was greater than 52.1 µM, the TGI (A549 NSCLC) was greater than 100 µM and the GI50 (NCI-H460 lung) was 0.393 µM. For the same compound, the TGI (NCI-H460 lung) was greater than 100 µM, the GI50 (NCI-H226 lung) was 8.35 µM and the TGI (NCI-H226 lung) was greater than 100 µM. For the same compound, the GI50 (SW-620 colon) was 0.477 µM, the TGI (SW-620 colon) was greater than 100 µM and the GI50 (CAKI-1 renal) was 1.34 µM. For the same compound, the TGI (CAKI-1 renal) was greater than 100 µM, the GI50 (UACC-257 melanoma) was greater than 100 µM and the TGI (UACC-257 melanoma) was greater than 100 µM. The GI50 (HOP-92 NSCLC) was 2.35 µM, the TGI (HOP-92 NSCLC) was 13.2 µM and the GI50 (TK-10 renal) was 24.9 µM. It also gave a TGI (TK-10 renal) of 72.5 µM, a GI50 (KM12 colon) of 5.89 µM and a TGI (KM12 colon) greater than 100 µM.
